{"source": "patent US8623844B2", "about": "“Fosaprepitant dimeglumine intermediate, neutral fosaprepitant, and amorphous fosaprepitant dimeglumine and processes for their preparations” (priority 2008, dated 2014)", "key": {"[1]": {"assay": "Stability studies of amorphous form, series of XRPD spectra (FIG. 7)", "type": "physicochemical", "conditions": "about 2° C. to about 8° C., relative humidity less than about 60%, about 7 days to about 2 months", "method": "The diffractogram was obtained using a Powder X-ray Diffractometer (Philips X'Pert Pro, PANalytical®) with a Cu radiation of λ=1.540598Å. The measurements were carried out from 2 degrees to 50 degrees with times per step of 50 seconds.\nThe stability data, shown as series of XRPD scans, are substantially in accordance with FIG. 7."}, "[2]": {"conditions": "cited from earlier work"}}, "data": [{"compound": "CNC[C@H](O)[C@@H](O)[C@H](O)[C@H](O)CO.CNC[C@H](O)[C@@H](O)[C@H](O)[C@H](O)CO.C[C@@H](O[C@H]1OCCN(Cc2nc(=O)n(P(=O)(O)O)[nH]2)[C@H]1c1ccc(F)cc1)c1cc(C(F)(F)F)cc(C(F)(F)F)c1", "note": "[amorphous fosaprepitant dimeglumine, 1-deoxy-1-(methylamino)-D-glucitol[3-[[(2R,3S)-2-[(1R)-1-[3,5-bis(trifluoromethyl)phenyl]-ethoxy]-3-(4-fluorophenyl)-4-morpholinyl]methyl]-2,5-dihydro-5-oxo-1H-1,2,4-triazol-1-yl]phosphonate (2:1) (salt)]", "values": [{"measurement": "stability of amorphous polymorphic form (XRPD)", "setting": "[1]", "result": "substantially stable"}]}, {"compound": "CNC[C@H](O)[C@@H](O)[C@H](O)[C@H](O)CO.CNC[C@H](O)[C@@H](O)[C@H](O)[C@H](O)CO.C[C@@H](O[C@H]1OCCN(Cc2nn(P(=O)(O)O)c(=O)[nH]2)[C@H]1c1ccc(F)cc1)c1cc(C(F)(F)F)cc(C(F)(F)F)c1", "values": [{"measurement": "degradation on storage", "setting": "[2]; normal ambient temperatures, stored at −20° C. to avoid degradation, J. Med. Chem. 2000, 43, 1234-1241", "result": "degrades at normal ambient temperatures"}, {"measurement": "stability of amorphous form on exposure", "setting": "[2]; normal room temperature, as well as about 2° C.-8° C., transforms into crystalline form", "result": "loses its stability"}]}]}
